Measured values published in ChEMBL document CHEMBL6096642 (Eur J Med Chem, 2025).
Values belong to the compound of their own block, whether it stands above or below them. Calls of active or inactive are those of the source. The calls are words filed in the database; no cut-off is given here.

Tests used:
[1] = biological target: T1, Tyrosine-protein phosphatase non-receptor type 1 (Homo sapiens) (UniProt P18031); test: (§1) Inhibition of polyhis-tagged recombinant human PTP1B (1 to 303 residues) extracted from Escherichia coli BL21 (DE3) pLysS using p-nitro-phenyl phosphate as substrate at 10 uM preincubated for 15 mins followed by substrate addition and measured after 15 mins by absorbance based analysis relative to control; conditions: time 30.0 min
T1 sequence (whole entry): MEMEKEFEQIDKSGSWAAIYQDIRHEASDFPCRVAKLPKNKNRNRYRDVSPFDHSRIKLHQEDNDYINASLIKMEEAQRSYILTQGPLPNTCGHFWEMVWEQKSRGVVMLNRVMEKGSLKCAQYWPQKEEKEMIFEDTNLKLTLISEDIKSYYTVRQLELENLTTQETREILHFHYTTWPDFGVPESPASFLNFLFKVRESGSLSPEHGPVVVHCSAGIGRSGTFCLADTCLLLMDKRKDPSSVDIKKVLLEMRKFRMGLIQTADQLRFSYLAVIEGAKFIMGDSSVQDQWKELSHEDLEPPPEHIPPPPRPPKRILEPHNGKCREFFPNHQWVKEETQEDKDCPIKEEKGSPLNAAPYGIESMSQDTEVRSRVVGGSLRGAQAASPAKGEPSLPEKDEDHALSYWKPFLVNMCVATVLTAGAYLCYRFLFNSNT

[2] = biological target: T1, Tyrosine-protein phosphatase non-receptor type 1 (Homo sapiens); test: as §1, with “50” for “10”; conditions: time 30.0 min
[3] = Selectivity index, ratio of IC50 for TCPTP (unknown origin) extracted from Escherichia coli BL21 TB1 using p-nitro-phenyl phosphate as substrate to IC50 for human PTP1B extracted from Escherichia coli BL21 TB1 using p-nitro-phenyl phosphate as substrate
[4] = biological target: Aldo-keto reductase family 1 member B1 (Rattus norvegicus, UniProt P07943); test: Inhibition of male Wistar rat lens ALR2 using D,L-glyceraldehyde as substrate assessed as NADPH consumption by spectrophotometric analysis
[5] = biological target: T2, Aldo-keto reductase family 1 member A1 (Rattus norvegicus, UniProt P51635); test: Inhibition of male Wistar rat kidney ALR1 using D-glucuronate as substrate assessed as NADPH consumption by spectrophotometric analysis
T2 sequence (P51635 whole entry): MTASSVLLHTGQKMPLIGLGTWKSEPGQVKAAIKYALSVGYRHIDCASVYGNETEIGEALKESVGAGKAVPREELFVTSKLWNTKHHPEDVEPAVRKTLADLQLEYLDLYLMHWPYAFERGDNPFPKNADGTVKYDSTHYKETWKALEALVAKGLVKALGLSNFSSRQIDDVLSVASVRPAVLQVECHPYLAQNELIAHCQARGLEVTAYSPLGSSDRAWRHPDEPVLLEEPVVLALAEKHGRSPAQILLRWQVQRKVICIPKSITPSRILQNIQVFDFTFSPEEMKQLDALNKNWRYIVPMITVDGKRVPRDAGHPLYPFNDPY

Rattus norvegicus [6] = species: Rattus norvegicus; test: Selectivity index, ratio of IC50 for male Wistar rat kidney ALR1 using D-glucuronate as substrate to IC50 for male Wistar rat lens ALR2 using D,L-glyceraldehyde as substrate
[7] = biological target: T3, Tyrosine-protein phosphatase non-receptor type 1 (Homo sapiens, UniProt P18031); test: Inhibition of polyhis-tagged recombinant human PTP1B (1 to 303 residues) extracted from Escherichia coli BL21 (DE3) pLysS using p-nitro-phenyl phosphate as substrate assessed as substrate hydrolysis by measuring p-nitrophenolate release by absorbance based analysis
T3 sequence (P18031 whole entry): T1 sequence (whole entry)

[8] = biological target: T4, Tyrosine-protein phosphatase non-receptor type 2 (Homo sapiens, UniProt P17706); test: Inhibition of polyHis-tagged recombinant human TCPTP (1 to 415 residues) extracted from Escherichia coli BL21 (DE3) pLysS using p-nitro-phenyl phosphate as substrate assessed as substrate hydrolysis by measuring p-nitrophenolate release by absorbance based analysis
T4 sequence (P17706 whole entry): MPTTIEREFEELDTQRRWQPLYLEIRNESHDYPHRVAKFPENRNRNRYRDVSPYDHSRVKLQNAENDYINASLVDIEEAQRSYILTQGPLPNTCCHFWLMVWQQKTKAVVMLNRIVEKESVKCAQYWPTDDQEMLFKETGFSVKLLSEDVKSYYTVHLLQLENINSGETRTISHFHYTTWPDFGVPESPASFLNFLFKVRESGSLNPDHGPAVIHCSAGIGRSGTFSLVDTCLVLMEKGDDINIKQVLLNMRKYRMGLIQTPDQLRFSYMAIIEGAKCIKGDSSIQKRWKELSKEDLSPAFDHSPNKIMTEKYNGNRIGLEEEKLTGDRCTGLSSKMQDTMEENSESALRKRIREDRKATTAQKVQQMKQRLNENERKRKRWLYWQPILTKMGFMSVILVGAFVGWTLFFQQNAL

Homo sapiens = species: Homo sapiens; test: Selectivity index, ratio of IC50 for polyHis-tagged recombinant human TCPTP (1 to 415 residues) extracted from Escherichia coli BL21 (DE3) pLysS using p-nitro-phenyl phosphate as substrate to IC50 for polyhis-tagged recombinant human PTP1B (1 to 303 residues) extracted from Escherichia coli BL21 (DE3) pLysS using p-nitro-phenyl phosphate as substrate
[9] = biological target: Aldo-keto reductase family 1 member B1 (Rattus norvegicus) (UniProt P07943); test: Inhibition of male Wistar rat lens ALR2 using D,L-glyceraldehyde as substrate assessed as NADPH consumption at 10 uM by spectrophotometric analysis relative to control
[10] = biological target: Aldo-keto reductase family 1 member B1 (Rattus norvegicus) (UniProt P07943); test: Inhibition of male Wistar rat lens ALR2 using D,L-glyceraldehyde as substrate assessed as NADPH consumption at 1 uM by spectrophotometric analysis relative to control
[11] = biological target: T1, Tyrosine-protein phosphatase non-receptor type 1 (Homo sapiens); test: Irreversible inhibition of polyhis-tagged recombinant human PTP1B (1 to 303 residues) extracted from Escherichia coli BL21 (DE3) pLysS at 200 uM incubated for 1 hrs and measured after dilution
C2C12 [12] = test: Effect on mitochondrial mass in mouse C2C12 cells at 25 to 50 uM incubated for 72 hrs by Mitotracker green based flow cytometric analysis; assay type: functional, cell-based; conditions: dose 25-50 µM
Rattus norvegicus [13] = species: Rattus norvegicus; test: Selectivity index, ratio of IC50 for rat kidney ALR1 to IC50 for rat lens ALR2
[14] = biological target: T2, Aldo-keto reductase family 1 member A1; test: Inhibition of rat kidney ALR1; assay type: tissue-based
C2C12 [15] = test: Cytotoxicity against mouse C2C12 cells assessed as reduction in cell viability at 1 uM measured after 48 hrs by MTT assay; assay type: toxicity, cell-based; conditions: c2c12, 48 h
C2C12 [16] = test: Induction of glucose uptake in mouse C2C12 cells assessed as increase in 2-NDBG uptake at 25 to 50 uM incubated for 30 mins by flow cytometric analysis; assay type: functional, cell-based; conditions: dose 25-50 µM
C2C12 [17] = test: Enhancement of […] glucose uptake in mouse C2C12 cells assessed as increase in 2-NDBG uptake at 25 to 50 uM preincubated for 30 mins followed by insulin addition and measure after 30 mins by flow cytometric analysis; assay type: functional, cell-based; conditions: dose 25-50 µM, time 60.0 min
C2C12 [18] = test: Induction of glucose uptake in mouse C2C12 cells assessed as decrease in glucose concentration in cell culture medium at 25 to 50 uM incubated for 24 hrs by BGSTAR glucometric analysis; assay type: functional, cell-based; conditions: dose 25-50 µM
C2C12 [19] = test: Induction of Akt phosphorylation in mouse C2C12 cells at 25 uM incubated for 30 mins by Western blot analysis; assay type: cell-based
C2C12 [20] = test: Induction of Akt phosphorylation in mouse C2C12 cells at 25 uM incubated for 30 mins in presence of insulin by Western blot analysis; assay type: cell-based
Mitochondrial membrane = test: Induction of mitochondrial membrane potential loss in mouse C2C12 cells at 25 uM incubated for 0.5 to 50 hrs by TMRE probe based flow cytometric analysis; conditions: time 0.5-50 hrs
C2C12 [21] = test: Effect on mitochondrial mass in mouse C2C12 cells at 25 uM incubated for 72 hrs by Mitotracker green based flow cytometric analysis; assay type: functional, cell-based
C2C12 [22] = test: Reduction of mitochondrial mass in mouse C2C12 cells at 25 uM incubated for 72 hrs by Mitotracker green based flow cytometric analysis; assay type: functional, cell-based
C2C12 [23] = test: Induction of mitochondrial uncoupling activity in mouse C2C12 cells assessed as increase in proton leak at 25 uM incubated for 30 mins by Seahorse XF cell mito stress analysis; assay type: functional, cell-based
C2C12 [24] = test: Induction of mitochondrial uncoupling activity in mouse C2C12 cells assessed as decrease in oxygen-dependent ATP production at 25 uM incubated for 30 mins by Seahorse XF cell mito stress analysis; assay type: functional, cell-based
C2C12 [25] = test: Induction of mitochondrial uncoupling activity in mouse C2C12 cells assessed as decrease in sparse capacity at 25 uM incubated for 30 mins by Seahorse XF cell mito stress analysis; assay type: functional, cell-based
C2C12 [26] = test: Induction of mitochondrial uncoupling activity in mouse C2C12 cells assessed as decrease in coupling efficiency at 25 uM incubated for 30 mins by Seahorse XF cell mito stress analysis; assay type: functional, cell-based
C2C12 [27] = test: Effect on basal respiration rate in mouse C2C12 cells assessed as decrease in coupling efficiency at 25 uM incubated for 30 mins by Seahorse XF cell mito stress analysis; assay type: functional, cell-based
C2C12 [28] = test: Effect on maximal respiration rate in mouse C2C12 cells assessed as decrease in coupling efficiency at 25 uM incubated for 30 mins by Seahorse XF cell mito stress analysis; assay type: functional, cell-based
C2C12 [29] = test: Reduction in basal respiration rate in mouse C2C12 cells assessed as decrease in coupling efficiency at 25 uM incubated for 24 hrs by Seahorse XF cell mito stress analysis; assay type: functional, cell-based
C2C12 [30] = test: Reduction in oxygen-dependent ATP production in mouse C2C12 cells assessed as decrease in coupling efficiency at 25 uM incubated for 24 hrs by Seahorse XF cell mito stress analysis; assay type: functional, cell-based
C2C12 [31] = test: Reduction in proton leak in mouse C2C12 cells assessed as decrease in coupling efficiency at 25 uM incubated for 24 hrs by Seahorse XF cell mito stress analysis; assay type: functional, cell-based
C2C12 [32] = test: Reduction in maximal respiration rate in mouse C2C12 cells assessed as decrease in coupling efficiency at 25 uM incubated for 24 hrs by Seahorse XF cell mito stress analysis; assay type: functional, cell-based
C2C12 [33] = test: Effect on sparse capacity in mouse C2C12 cells assessed as decrease in coupling efficiency at 25 uM incubated for 24 hrs by Seahorse XF cell mito stress analysis; assay type: functional, cell-based
C2C12 [34] = test: Effect on couple efficiency in mouse C2C12 cells assessed as decrease in coupling efficiency at 25 uM incubated for 24 hrs by Seahorse XF cell mito stress analysis; assay type: functional, cell-based

Structure (SMILES): O=c1c(O)c(-c2ccc(O)cc2O)oc2cc(O)cc(O)c12
inhibition [1]: 34.5%
inhibition [2]: 95.2%
Ratio IC50 [3]: 1.3

Structure (SMILES): CN(C)C(=N)NC(=N)N
Activity (C2C12 [12]): inactive

Structure (SMILES): CC(/C=C1\SC(=S)N(CC(=O)O)C1=O)=C\c1ccccc1
IC50 [14]: 2.14 µM
IC50 [5]: 2.37 µM

Structure (SMILES): O=C(O)CN1C(=O)S/C(=C\c2cn(Cc3ccc(Cl)cc3Cl)c3ccccc23)C1=O
IC50 [4]: 0.289 µM
IC50 [5]: > 15 µM
Ratio IC50 (Rattus norvegicus [6]): > 52
inhibition [1]: 28.1%
inhibition [2]: 62.8%
IC50 [7]: 21.3 µM
IC50 [8]: 37.8 µM
Ratio IC50 (Homo sapiens): 1.8
inhibition [9]: > 92%
inhibition [10]: > 70%
inhibition [11]: Active
Activity (C2C12 [15]): Toxic
Activity (C2C12 [16]): Active
Activity (C2C12 [17]): inactive
Activity (C2C12 [18]): Active
Activity (C2C12 [19]): Not active; Compound Acted Neither As An Insulin Mimetic Nor A Sensitizing Agent
Activity (C2C12 [20]): Not active; Compound Acted Neither As An Insulin Mimetic Nor A Sensitizing Agent
Activity (Mitochondrial membrane): Active; Compound Targets Mitochondria As An Uncoupling Agent
Activity (C2C12 [21]): inactive
Activity (C2C12 [22]): Active
Activity (C2C12 [23]): Active
Activity (C2C12 [24]): Active
Activity (C2C12 [25]): Active
Activity (C2C12 [26]): Active
Activity (C2C12 [27]): inactive
Activity (C2C12 [28]): inactive
Activity (C2C12 [29]): Active
Activity (C2C12 [30]): Active
Activity (C2C12 [31]): Active
Activity (C2C12 [32]): Active
Activity (C2C12 [33]): inactive
Activity (C2C12 [34]): inactive

Further lines, results first:

IC50 [4]: 0.026 µM
IC50 [5]: 7.54 µM
Ratio IC50 (Rattus norvegicus [6]): 290
inhibition [1]: 18.3%
inhibition [2]: 49.6%
IC50 [7]: 42.8 µM
IC50 [8]: 47.1 µM
Ratio IC50 (Homo sapiens): 1.1
inhibition [9]: > 92%
inhibition [10]: > 70%
inhibition [11]: Active
Structure (SMILES): O=C(O)CN1C(=O)S/C(=C\c2cn(Cc3ccccc3)c3ccccc23)C1=O

Ratio IC50 (Rattus norvegicus [13]): 16
Structure (SMILES): Cc1ccc(CN2C(=O)C(C(C#N)C(=O)O)c3cc(F)ccc32)cc1 (stereo not given)

IC50 [4]: 0.018 µM
IC50 [5]: 14.2 µM
Ratio IC50 (Rattus norvegicus [6]): 787
inhibition [1]: 0%
inhibition [2]: 90.8%
inhibition [9]: > 92%
inhibition [10]: > 70%
Structure (SMILES): O=C(O)CN1C(=O)S/C(=C\c2cn(Cc3ccc(F)cc3)c3ccccc23)C1=O

IC50 [4]: 0.187 µM
IC50 [5]: > 15 µM
Ratio IC50 (Rattus norvegicus [6]): > 80
inhibition [1]: 0%
inhibition [2]: 4.4%
IC50 [7]: > 50 µM
inhibition [9]: > 92%
inhibition [10]: > 70%
Structure (SMILES): O=C(O)CN1C(=O)S/C(=C\c2cn(Cc3ccc(Br)cc3F)c3ccccc23)C1=O
